{
  "source": "paper PMC6954722",
  "about": "(Stem Cells Translational Medicine, 2019)",
  "biological_target": "Smoothened (Mus musculus, UniProt P56726)",
  "sequence (P56726 33-793)": "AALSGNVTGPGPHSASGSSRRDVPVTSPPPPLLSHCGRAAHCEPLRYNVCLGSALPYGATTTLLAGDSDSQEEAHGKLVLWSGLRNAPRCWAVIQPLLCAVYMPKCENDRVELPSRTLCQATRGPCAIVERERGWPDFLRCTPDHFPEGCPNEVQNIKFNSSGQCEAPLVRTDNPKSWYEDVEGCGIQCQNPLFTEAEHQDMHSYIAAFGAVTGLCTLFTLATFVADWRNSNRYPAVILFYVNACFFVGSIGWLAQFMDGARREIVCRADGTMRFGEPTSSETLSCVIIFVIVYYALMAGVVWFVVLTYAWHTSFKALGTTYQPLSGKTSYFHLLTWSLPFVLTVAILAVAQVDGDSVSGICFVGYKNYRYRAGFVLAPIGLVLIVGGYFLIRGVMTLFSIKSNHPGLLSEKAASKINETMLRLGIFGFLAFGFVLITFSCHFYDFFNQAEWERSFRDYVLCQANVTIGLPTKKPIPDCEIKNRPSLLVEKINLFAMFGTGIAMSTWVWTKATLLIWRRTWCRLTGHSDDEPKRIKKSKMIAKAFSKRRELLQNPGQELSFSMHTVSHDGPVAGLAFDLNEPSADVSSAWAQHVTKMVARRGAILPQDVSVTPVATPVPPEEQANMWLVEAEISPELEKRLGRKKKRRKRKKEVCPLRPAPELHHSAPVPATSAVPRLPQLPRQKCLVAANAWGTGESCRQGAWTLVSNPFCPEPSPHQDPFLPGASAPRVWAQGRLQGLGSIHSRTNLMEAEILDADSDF",
  "test": "displacement of BODIPY-cyclopamine",
  "type": "cell-based",
  "data": [
    {"smiles": "O=[N+]([O-])c1ccc(S(=O)(=O)N2CCN(c3ccccc3)CC2)cc1", "note": "[compound #5, 1‐[(4‐nitrophenyl)sulfonyl]‐4‐phenylpiperazine]", "values": [
      {"measurement": "IC50", "result": "88 ± 3.7", "unit": "µM"}
    ]}
  ]
}
